Laboratory results as given in patent publication US8895317B2, “Reagent for measuring active nitrogen” (The University of Tokyo, priority 2008, dated 2014).

How the values were obtained:
[1] = Fluorescence quantum yield; type: physicochemical; conditions: triazole compound at a physiological pH
Excerpt: (§1) Therefore, use of DCl-DA Cal enables observation of intracellular reactive nitrogen species over such a long period of time that cannot be achieved by conventional fluorescent probes for measuring reactive nitrogen.

[2] = Stability under physiological conditions; type: physicochemical
Excerpt: as §1

O=C(O)CN(CC(=O)O)Cc1c2oc3c(CN(CC(=O)O)CC(=O)O)c(O)c(Cl)cc3c(-c3ccc4[nH]nnc4c3C(=O)O)c-2cc(Cl)c1=O [triazole compound]
fluorescence quantum yield Φf [1]: 0.63 | stability under physiological conditions [2]: stable under physiological conditions
